{"source": "patent US5426111A", "about": "“[Alkoxy-, alkenyloxy-, alkynyloxy-, and phenylmethyloxyalkoxycycloalkyl or alkoxycycloheteroalkyl]naphtho[2,3-c]furan-1(3H)-one inhibitors of 5-lipoxygenase” (Abbott Laboratories, priority 1994, dated 1995)", "test_system": "LTB4 biosynthesis", "assay": "Calcium ionophore-induced LTB4 biosynthesis in human whole blood", "format": "cell-based", "settings": "@ 100 nm; human heparinized whole blood, calcium ionophore A23187 challenge, LTB4 by radioimmunoassay", "description": "Inhibition of leukotriene biosynthesis was evaluated in an assay, involving calcium ionophore-induced LTB4 biosynthesis expressed human whole blood. Human heparinized whole blood was preincubated with test compounds or vehicle for 15 min at 37° C. followed by calcium ionophore A23 187 challenge (final concentration of 8.3 μM) and the reaction terminated after 30 min by adding two volumes of methanol containing prostaglandin B2 as an internal recovery standard. The methanol extract was analyzed for LTB4 using a commercially available radioimmunoassay."}
{"smiles": "COC1(/C=C/COc2ccc3c(-c4ccc(F)cc4)c4c(cc3c2)C(=O)OC4)CCOCC1", "note": "[Example 1, 4-(4-fluorophenyl)-7-[3-(4-methoxytetrahydro-2H-pyran-4-yl)-2-propenyloxy]naptho[2,3-c]furan-1(3H)-one]", "values": [{"measurement": "inhibition of leukotriene biosynthesis", "result": 55, "unit": "%"}]}
